How the values were obtained:
[1] = system: flank organ of mature male Syrian golden hamsters; assay: Topical comparison in mature male hamsters, right flank organ treated, left flank organ vehicle (Tables II, III); type: in vivo; details: n=7; for Flank organ Diameter, RFO / Flank organ Weight, RFO / Flank organ Development, RFO (median score): treated right flank organ; for Flank organ Diameter, RFO / Flank organ Weight, RFO: mean; for Flank organ Development, RFO (median score): scale 0 to 4 (0 barely visible, 4 as in mature male); for Flank Organ (Mean Score) Area / Flank Organ (Mean Score) Elevation / Flank Organ (Mean Score) Hair Growth / Flank Organ (Mean Score) Hair Pigmentation / Flank Organ (Mean Score) Skin Pigmentation: RFO, scale 0 to 4
From the text: Each flank organ of mature male Syrian golden hamsters having a mean initial body weight of 105 g. was medicated topically with the compound of Formula I dissolved in ethanol (5 microliters) for twenty-one days. Flank organ hair was clipped three times per week to facilitate application. On the day following the last medication the hamsters were killed with an overdose of sodium pentobarbital. The flank organ parameters and the weights of seminal vesicles, adrenals and thymus glands were determined. Flank organ diameter was measured parallel to the breadth of the hamster with vernier calipers. Wet weights were obtained on flank organs excised around the periphery of the pigmented area. The topical activity of the compound of Formula I was also compared with that of 17β-hydroxy-17α-propylandrost-4-en-3-one, an antiandrogen, and hydrocortisone. In this experiment the right flank organ was treated with the test compound while vehicle-treated left flank organ served as control. […] In addition, the individual characteristics of the flank organ, elevation (thickness relative to adjacent skin), area, hair pigment, skin pigment and hair growth were all scored separately on a scale of 0 to 4.

[2] = system: hair growth on backs of male adrenalectomized Sprague-Dawley rats; assay: Reduction in hair growth in male adrenalectomized rats, topical (Table VII); type: in vivo; details: 0.1% solution topical, n=12
From the text: Hair was clipped from the backs of male Sprague-Dawley rats, having a mean body weight of 300 g., three weeks after adrenalectomy. The clipped area (4 cm.×4 cm.) was medicated with approximately 500 microliters of 0.1% solution of the compound of Formula I, or hydrocortisone or 500 microliters of ethanol alone for a two-week pretreatment period. The clipped area was then depilated and the medication with either solution or ethanol alone was continued for 4 weeks. The density of hair growth was scored visually at weekly intervals and at termination of the experiment on a scale of 0 to 4 (0, no hair growth; 4, complete hair regrowth). Skinfold thickness was also measured using a micrometer at the end of the experiment, which was conducted blind.

[3] = molecular target: T1, hamster flank organ cytosol receptor (Mesocricetus auratus, UniProt A0A1U7QL32); assay: Binding competition with 3H-dihydrotestosterone in hamster flank organ cytosol in vitro (Table VI); parameters: species or system Syrian golden hamsters; details: 3H-DHT 2 nM, two hours, no antagonist 13.96
T1 construct: The homogenate was centrifuged (120,000×g for 45 min.) and the cytosol was frozen and stored at -70° C; from tissue; host or cells: flank organ cytosol of castrated male Syrian golden hamsters
T1 sequence (A0A1U7QL32 1-900): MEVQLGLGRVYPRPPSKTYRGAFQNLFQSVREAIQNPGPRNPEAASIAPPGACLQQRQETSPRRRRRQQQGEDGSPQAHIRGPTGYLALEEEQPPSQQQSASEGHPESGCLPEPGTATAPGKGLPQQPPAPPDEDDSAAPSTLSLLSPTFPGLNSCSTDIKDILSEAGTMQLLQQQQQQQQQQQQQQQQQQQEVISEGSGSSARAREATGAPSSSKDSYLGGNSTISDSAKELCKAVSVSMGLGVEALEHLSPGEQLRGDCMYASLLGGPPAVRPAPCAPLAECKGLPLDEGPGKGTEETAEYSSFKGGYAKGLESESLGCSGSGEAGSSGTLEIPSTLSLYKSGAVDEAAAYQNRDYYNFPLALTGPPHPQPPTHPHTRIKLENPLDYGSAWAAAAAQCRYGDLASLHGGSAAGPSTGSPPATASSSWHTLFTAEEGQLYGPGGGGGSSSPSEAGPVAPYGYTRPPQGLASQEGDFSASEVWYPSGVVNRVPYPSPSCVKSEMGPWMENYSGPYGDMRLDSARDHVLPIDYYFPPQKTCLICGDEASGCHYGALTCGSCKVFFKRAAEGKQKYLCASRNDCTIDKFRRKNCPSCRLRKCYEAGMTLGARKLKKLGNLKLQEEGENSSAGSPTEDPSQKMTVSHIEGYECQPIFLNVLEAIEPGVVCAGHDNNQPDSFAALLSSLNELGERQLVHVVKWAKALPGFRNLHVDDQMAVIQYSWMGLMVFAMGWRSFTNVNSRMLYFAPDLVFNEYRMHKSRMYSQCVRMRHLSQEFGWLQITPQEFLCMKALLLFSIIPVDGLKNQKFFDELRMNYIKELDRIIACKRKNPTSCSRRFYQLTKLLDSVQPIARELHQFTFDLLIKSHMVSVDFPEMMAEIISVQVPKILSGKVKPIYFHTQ
Protocol: The flank organs of twelve mature male Syrian golden hamsters each weighing from 120 to 140 g. and having been castrated 16-18 hours earlier were excised, dissected under the microscope to remove the dermis and the muscle layers and homogenized in buffer (1.5 volumes of 50 mM Tris, 0.5 mM mercaptoethanol and 0.1 mM ethylenediamine tetracetate, pH 7.4). The homogenate was centrifuged (120,000×g for 45 min.) and the cytosol was frozen and stored at -70° C. Six of the cytosol samples were thawed at room temperature, pooled and used for evaluation of in vitro binding.

[4] = system: castrated immature male Syrian golden hamsters; assay: Systemic antiandrogenic and glucocorticoid activity, subcutaneous, with testosterone propionate (Table IV); type: in vivo; details: testosterone propionate 0.4 mg/kg/day alone for 14 days (androgen-treated control); mean, n=8
Protocol: A solution of the compound of Formula I in cottonseed oil was administered subcutaneously at 1 ml./kg. to castrated immature male Syrian golden hamsters having a mean initial body weight of 79 g. for 14 consecutive days concurrently with testosterone propionate. On the day following the last medication the hamsters were killed, the flank organ parameters were determined and the weights of seminal vesicles, adrenals and thymus glands were obtained.

[5] = after depilation, median score, scale 0 to 4

Row | Structure (SMILES) | Flank organ Diameter, RFO ([1]; 5 μg/RFO for 21 days) [mm] | Flank organ Weight, RFO ([1]; 5 μg/RFO for 21 days) [mg] | Flank organ Development, RFO (median score) ([1]; 5 μg/RFO for 21 days) | Flank organ Diameter, RFO ([1]; 50 μg/RFO for 21 days) [mm] | Flank organ Weight, RFO ([1]; 50 μg/RFO for 21 days) [mg] | Flank organ Development, RFO (median score) ([1]; 50 μg/RFO for 21 days) | Flank Organ (Mean Score) Area ([1]; 5 μg/flank organ for 21 days) | Flank Organ (Mean Score) Elevation ([1]; 5 μg/flank organ for 21 days) | Flank Organ (Mean Score) Hair Growth ([1]; 5 μg/flank organ for 21 days) | Flank Organ (Mean Score) Hair Pigmentation ([1]; 5 μg/flank organ for 21 days) | Flank Organ (Mean Score) Skin Pigmentation ([1]; 5 μg/flank organ for 21 days) | Flank Organ (Mean Score) Area ([1]; 50 μg/flank organ for 21 days) | Flank Organ (Mean Score) Elevation ([1]; 50 μg/flank organ for 21 days) | Flank Organ (Mean Score) Hair Growth ([1]; 50 μg/flank organ for 21 days) | Flank Organ (Mean Score) Hair Pigmentation ([1]; 50 μg/flank organ for 21 days) | Flank Organ (Mean Score) Skin Pigmentation ([1]; 50 μg/flank organ for 21 days) | other results
1 | CCC[C@]1(O)CC[C@H]2[C@@H]3CCC4=CC(=O)CC[C@]4(C)[C@H]3CC[C@@]21C [17β-Hydroxy-17α-propylandrost-4-en-3-one, 17β-hydroxy-17α-propylandrost-4-en-3-one] | 4.9 | 33.8 | 3 | 3.9 | 21.4 | 2 | 3.1 | 2.6 | 3.1 | 3.3 | 4.0 | 1.6 | 1.4 | 2.3 | 2.6 | 2.7 | 
2 | C[C@]12CCC(=O)C=C1CC[C@@H]1[C@@H]2[C@@H](O)C[C@@]2(C)[C@H]1CC[C@]2(O)C(=O)CO [Hydrocortisone, hydrocortisone] | 5.7 | 38.5 | 4 | 5.7 | 39.1 | 4 | 3.7 | 3.7 | 1.9 | 3.7 | 3.9 | 4.0 | 3.5 | 1.3 | 3.0 | 3.4 | Hair Growth Score, Treatment week 1 [2, 5]: 0; Hair Growth Score, Treatment week 2 [2, 5]: 0; Hair Growth Score, Treatment week 3 [2, 5]: 1; Hair Growth Score, Treatment week 4 [2, 5]: 2; Skinfold Thickness, Treatment week 4 ([2]; mean, vehicle 2.51): 2.11 mm; Hair Growth Score, Pretreatment week 1 ([2]; median score, scale 0 to 4 (0 no hair growth, 4 complete regrowth)): 2; Hair Growth Score, Pretreatment week 2 ([2]; median score, scale 0 to 4): 3
3 | C[C@]12CCC(=O)C[C@@H]1CC[C@@H]1[C@@H]2CC[C@]2(C)[C@@H](O)CC[C@@H]12 [DHT, Dihydrotestosterone, reference compound] |  |  |  |  |  |  |  |  |  |  |  |  |  |  |  |  | % Bound (Mean ± SE) of 3H-dihydrotestosterone ([3]; unlabelled antagonist 20 nM, molar ratio 10): 7.95 ± .41%; % Bound (Mean ± SE) of 3H-dihydrotestosterone ([3]; unlabelled antagonist 200 nM, molar ratio 100): 4.22 ± .001%; % Bound (Mean ± SE) of 3H-dihydrotestosterone ([3]; unlabelled antagonist 2000 nM, molar ratio 1000): 4.00 ± .22%
4 | CCC(=O)O[C@H]1CC[C@H]2[C@@H]3CCC4=CC(=O)CC[C@]4(C)[C@H]3CC[C@]12C [Testosterone Propionate, testosterone propionate, reference compound] |  |  |  |  |  |  |  |  |  |  |  |  |  |  |  |  | Final Body Weight [4]: 106; Flank Organ Diameter [4]: 4.3 mm; Flank Organ Wet Weight [4]: 22.8 mg; Organ Weights: Adrenals [4]: 18.2 mg; Organ Weights: Seminal Vesicles [4]: 157 mg; Organ Weights: Thymus [4]: 58 mg

Reference: patent US4269831A, “Topical dermatological method of use of an androstenopyrazole” (priority 1979, dated 1981)
